The target of the experiment is BTK (Homo sapiens (Human), UniProt Q06187). In words: In vitro BTK kinase assay: BTK-POLYGAT-LS ASSAY.
The mark [1] stands for this setting: read-out: IC50 (10 uM ATP), 10 uM ATP, in vitro Btk kinase assay, Example 41.

pIC50: −log10 of the molar value. Read-outs that look alike come from different tables or passages of the source.

Sequence of BTK (Q06187 whole entry): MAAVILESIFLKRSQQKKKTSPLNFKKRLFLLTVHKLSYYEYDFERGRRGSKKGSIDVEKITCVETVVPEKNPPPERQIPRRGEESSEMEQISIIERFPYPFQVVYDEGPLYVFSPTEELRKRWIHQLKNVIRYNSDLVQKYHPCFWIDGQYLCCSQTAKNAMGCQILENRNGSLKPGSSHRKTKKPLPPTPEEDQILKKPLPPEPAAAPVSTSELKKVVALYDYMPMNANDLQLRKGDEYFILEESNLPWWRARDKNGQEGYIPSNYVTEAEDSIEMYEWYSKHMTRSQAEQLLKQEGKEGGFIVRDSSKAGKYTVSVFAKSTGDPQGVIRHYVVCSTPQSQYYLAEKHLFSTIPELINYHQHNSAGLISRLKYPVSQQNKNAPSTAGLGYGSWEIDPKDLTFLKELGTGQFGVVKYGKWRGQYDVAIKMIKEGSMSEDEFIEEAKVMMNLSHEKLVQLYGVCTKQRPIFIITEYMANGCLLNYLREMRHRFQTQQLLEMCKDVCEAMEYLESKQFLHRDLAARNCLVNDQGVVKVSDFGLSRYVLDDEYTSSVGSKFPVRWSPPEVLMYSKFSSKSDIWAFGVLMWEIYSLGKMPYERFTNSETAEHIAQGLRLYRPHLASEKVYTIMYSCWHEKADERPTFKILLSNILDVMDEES

Usually pIC50 stands for the negative decadic logarithm of the IC50, by convention in mol/L. `C[C@@H]1CCCN1c1ccccc1NC(=O)Nc1cccc(C2CCCN(c3ncnc4[nH]ccc34)C2)c1` (stereo partly drawn) [compound 159]: the pIC50 is 6.00 to 7.00.

Turning to `O=C(Nc1cccc(C2CCCN(c3ncnc4[nH]ccc34)C2)c1)Nc1cc(F)ccc1N1CCCC1` (stereo not drawn) [compound 160], the pIC50 is 6.00 to 7.00.

The molecule `O=C(Nc1cccc(C2CCCN(c3ncnc4[nH]ccc34)C2)c1)Nc1c(Cl)cccc1C(F)(F)F` (stereo not drawn) [compound 161] showed a pIC50 of 6.00 to 7.00.

Molecule `O=C(Nc1cccc(C2CCCN(c3ncnc4[nH]ccc34)C2)c1)Nc1ccccc1N1CC[C@@H](F)C1` (stereo partly drawn) [compound 162] gave a pIC50 of 6.00 to 7.00.

Turning to `O=C(Nc1cccc(C2CN(c3ncnc4[nH]ccc34)CCC2CO)c1)Nc1ccccc1N1CCCC1` (stereo not drawn) [compound 163], the pIC50 is 6.00 to 7.00.

Consider `N[C@@H]1CCN(c2ccccc2NC(=O)Nc2cccc(C3CCCN(c4ncnc5[nH]ccc45)C3)c2)C1` (stereo partly drawn) [compound 164], for which the pIC50 is 6.00 to 7.00.

Consider `O=C(Nc1cccc(C2CCCN(c3ncnc4[nH]ccc34)C2)c1)Nc1ccccc1N1CCOCC1` (stereo not drawn) [compound 165], for which the pIC50 is 6.00 to 7.00.

`O=C(NCC1CCCC1)Nc1cccc(C2CCCN(c3ncnc4[nH]ccc34)C2)c1` (stereo not drawn) [compound 166] gave a pIC50 of 6.00 to 7.00.

In turn, `CC(C)(C)c1ccccc1NC(=O)Nc1cccc(C2CCCN(c3ncnc4[nH]ccc34)C2)c1` (stereo not drawn) [compound 167] showed a pIC50 of 6.00 to 7.00.

`O=C(Nc1cccc(C2CCCN(c3ncnc4[nH]ccc34)C2)c1)Nc1ccccc1N1CCC(F)(F)C1` (stereo not drawn) [compound 168]: the pIC50 is 6.00 to 7.00.

Molecule `N[C@H]1CCN(c2ccccc2NC(=O)Nc2cccc(C3CCCN(c4ncnc5[nH]ccc45)C3)c2)C1` (stereo partly drawn) [compound 169] showed a pIC50 of 6.00 to 7.00.

In turn, `O=C(Nc1cccc(C2CCCN(c3ncnc4[nH]ccc34)C2)c1)Nc1ccccc1N1CCCC1=O` (stereo not drawn) [compound 170] had a pIC50 of 6.00 to 7.00.

As to `O=C(Nc1cccc(C2CCN(c3ncnc4[nH]ccc34)C2)c1)Nc1ccccc1N1CCCC1` (stereo not drawn) [compound 171], the pIC50 is 6.00 to 7.00.

`O=C(Nc1cccc(C2CCCN(c3ncnc4[nH]ccc34)C2)c1)Nc1ccccc1C(F)(F)F` (stereo not drawn) [compound 173] had a pIC50 of 6.00 to 7.00.

Regarding `O=C(Nc1ccccc1)Nc1cccc(C2CCCN(c3ncnc4[nH]cnc34)C2)c1` (stereo not drawn) [compound 174], the pIC50 under setting [1] is 6.00 to 7.00.

`O=C(Nc1cccc(C2CCCN(c3ncnc4[nH]ccc34)C2)c1)Nc1ccccc1N1CCCCC1` (stereo not drawn) [compound 175] had a pIC50 of 6.00 to 7.00.

Molecule `CO[C@@H]1CCN(c2ccccc2NC(=O)Nc2cccc(C3CCCN(c4ncnc5[nH]ccc45)C3)c2)C1` (stereo partly drawn) [compound 176] showed a negative logarithm of the IC50 (pIC50) of 6.00 to 7.00.

For the molecule `CCC(CC)CNC(=O)Nc1cccc(C2CCCN(c3ncnc4[nH]ccc34)C2)c1` (stereo not drawn) [compound 180], the negative-log IC50 (pIC50) was 6.00 to 7.00.

Consider `O=C(Nc1cccc(C2CCCN(c3ncnc4[nH]ccc34)C2)c1)Nc1ccccc1F` (stereo not drawn) [compound 182], for which the negative logarithm of the IC50 (pIC50) is 5.00 to 6.00.

Turning to `O=C(Nc1cccc(F)c1)Nc1cccc(C2CCCN(c3ncnc4[nH]ccc34)C2)c1` (stereo not drawn) [compound 183], the pIC50 was 5.00 to 6.00.

For the molecule `O=C(NCC1(O)CCCCC1)Nc1cccc(C2CCCN(c3ncnc4[nH]ccc34)C2)c1` (stereo not drawn) [compound 184], the pIC50 is 5.00 to 6.00.

In turn, `O=C(Nc1ccc(F)cc1)Nc1cccc(C2CCCN(c3ncnc4[nH]ccc34)C2)c1` (stereo not drawn) [compound 185] gave a pIC50 of 5.00 to 6.00.

For the molecule `CC(C)CCNC(=O)Nc1cccc(C2CCCN(c3ncnc4[nH]ccc34)C2)c1` (stereo not drawn) [compound 186], the pIC50 was 5.00 to 6.00.

As for `COc1cccc(NC(=O)Nc2cccc(C3CCCN(c4ncnc5[nH]ccc45)C3)c2)c1` (stereo not drawn) [compound 187], the negative-log IC50 (pIC50) is 5.00 to 6.00.

On to `C[C@H]1CCCN1c1ccccc1NC(=O)Nc1cccc(C2CCCN(c3ncnc4[nH]ccc34)C2)c1` (stereo partly drawn) [compound 188], for which the pIC50 is 5.00 to 6.00.

The molecule `CC(C)(C)c1ccccc1NC(=O)Nc1cccc([C@@H]2CCCN(c3ncnc4[nH]ccc34)C2)c1` [compound 189] had a pIC50 of 5.00 to 6.00.

In turn, `Cc1ccnc(Cl)c1NC(=O)Nc1cccc(C2CCCN(c3ncnc4[nH]ccc34)C2)c1` (stereo not drawn) [compound 190] gave a pIC50 of 5.00 to 6.00.

In turn, `O=C(Nc1cccc(C2CCCN(c3ncnc4[nH]ccc34)C2)c1)Nc1ccccc1OC(F)F` (stereo not drawn) [compound 191] showed a pIC50 of 5.00 to 6.00.

Take `CN(C)[C@H]1CCN(c2ccccc2NC(=O)Nc2cccc(C3CCCN(c4ncnc5[nH]ccc45)C3)c2)C1` (stereo partly drawn) [compound 192]: the pIC50 is 5.00 to 6.00.

The molecule `O=C(Nc1cccc(C2CCCN(c3ncnc4[nH]ccc34)C2)c1)NC1CCCC1` (stereo not drawn) [compound 193] showed a pIC50 of 5.00 to 6.00.

`O=C(Nc1cccc(C2CCCN(c3ncnc4[nH]ccc34)C2)c1)Nc1c(F)cccc1C(F)(F)F` (stereo not drawn) [compound 194] had a pIC50 of 5.00 to 6.00.

Turning to `CC(C)(O)c1ccccc1NC(=O)Nc1cccc(C2CCCN(c3ncnc4[nH]ccc34)C2)c1` (stereo not drawn) [compound 195], the pIC50 is 5.00 to 6.00.

For the molecule `CC(C)(C)CNC(=O)Nc1cccc(C2CCCN(c3ncnc4[nH]ccc34)C2)c1` (stereo not drawn) [compound 196], the pIC50 is 5.00 to 6.00.

The molecule `O=C(Nc1cccc(C2CCCN(c3ncnc4[nH]ccc34)C2)c1)Nc1cccnc1F` (stereo not drawn) [compound 197] gave a pIC50 of 5.00 to 6.00.

The molecule `O=C(Nc1cccc(C2CCCN(c3ncnc4[nH]ccc34)C2)c1)Nc1cccnc1O` (stereo not drawn) [compound 198] showed a pIC50 of 5.00 to 6.00.

Regarding `O=C(NC[C@H]1CCCC[C@@H]1O)Nc1cccc(C2CCCN(c3ncnc4[nH]ccc34)C2)c1` (stereo partly drawn) [compound 199], the pIC50 is 5.00 to 6.00.

`Cc1ccnc(C)c1NC(=O)Nc1cccc(C2CCCN(c3ncnc4[nH]ccc34)C2)c1` (stereo not drawn) [compound 200] gave a pIC50 of 5.00 to 6.00.

`COc1ccc(NC(=O)Nc2cccc(C3CCCN(c4ncnc5[nH]ccc45)C3)c2)cc1` (stereo not drawn) [compound 201]: the pIC50 was 5.00 to 6.00.

On to `O=C(Nc1cccc(C2CCCN(c3ncnc4[nH]ccc34)C2)c1)Nc1cccnc1Cl` (stereo not drawn) [compound 202], for which the pIC50 is 5.00 to 6.00.

Turning to `O=C(Nc1cccc(C2CCCN(c3ncnc4[nH]ccc34)C2)c1)N[C@H](CO)C1CCCCC1` (stereo partly drawn) [compound 203], the pIC50 was 5.00 to 6.00.

`O=C(Nc1cccc(C2CCCN(c3ncnc4[nH]ccc34)C2)c1)NC1CCC1` (stereo not drawn) [compound 204]: the pIC50 is 5.00 to 6.00.

Regarding `O=C(Nc1ccccc1)N[C@@H]1CCCN(C2CCCN(c3ncnc4[nH]ccc34)C2)C1` (stereo partly drawn) [compound 205], the pIC50 is 5.00 to 6.00.

As for `Nc1ncnc(N2CCCC(c3cccc(NC(=O)Nc4ccccc4)c3)C2)c1CCC(=O)O` (stereo not drawn) [compound 206], the pIC50 was 5.00 to 6.00.

Regarding `CN1CCN(c2ccccc2NC(=O)Nc2cccc(C3CCCN(c4ncnc5[nH]ccc45)C3)c2)CC1` (stereo not drawn) [compound 209], the pIC50 is 5.00 to 6.00.

`CN(C)[C@@H]1CCN(c2ccccc2NC(=O)Nc2cccc(C3CCCN(c4ncnc5[nH]ccc45)C3)c2)C1` (stereo partly drawn) [compound 210]: the pIC50 is 5.00 to 6.00.

For the molecule `O=C(Nc1cccc(C2CCCN(c3ncnc4[nH]ccc34)C2)c1)Nc1cccc2cc[nH]c12` (stereo not drawn) [compound 211], the negative-log IC50 (pIC50) is 5.00 to 6.00.

Molecule `CC(C)CNC(=O)Nc1cccc(C2CCCN(c3ncnc4[nH]ccc34)C2)c1` (stereo not drawn) [compound 212] had a negative-log IC50 (pIC50) of 5.00 to 6.00.

In turn, `O=C(Nc1cccc(C2CCCN(c3ncnc4[nH]ccc34)C2)c1)N[C@@H](CO)C1CCCCC1` (stereo partly drawn) [compound 213] had a pIC50 of 5.00 to 6.00.

Molecule `O=C(NCC1COCCO1)Nc1cccc(C2CCCN(c3ncnc4[nH]ccc34)C2)c1` (stereo not drawn) [compound 214] gave a negative-log IC50 (pIC50) of 5.00 to 6.00.

As to `COc1ncccc1NC(=O)Nc1cccc(C2CCCN(c3ncnc4[nH]ccc34)C2)c1` (stereo not drawn) [compound 215], the pIC50 was 5.00 to 6.00.

The molecule `O=C(NCc1cccc(C2CCCN(c3ncnc4[nH]ccc34)C2)c1)Nc1ccccc1` (stereo not drawn) [compound 216] had a pIC50 of 5.00 to 6.00.

As for `O=C(NCC1CCCCCC1)Nc1cccc(C2CCCN(c3ncnc4[nH]ccc34)C2)c1` (stereo not drawn) [compound 217], the pIC50 was 5.00 to 6.00.

For `O=C(NC[C@H]1CCCC[C@H]1O)Nc1cccc(C2CCCN(c3ncnc4[nH]ccc34)C2)c1` (stereo partly drawn) [compound 218], the pIC50 was 5.00 to 6.00.

As for `O=C(NCc1ccccc1)Nc1cccc(C2CCCN(c3ncnc4[nH]ccc34)C2)c1` (stereo not drawn) [compound 219], the pIC50 is 5.00 to 6.00.

As to `O=C(Nc1ccccc1)N[C@@H]1CCN(C2CCCN(c3ncnc4[nH]ccc34)C2)C1` (stereo partly drawn) [compound 220], the pIC50 is 5.00 to 6.00.

In the case of `CCOC(=O)/C=C/c1c(N)ncnc1N1CCCC(c2cccc(NC(=O)Nc3ccccc3)c2)C1` (stereo not drawn) [compound 221], the pIC50 under setting [1] was less than 5.00.

For the molecule `O=C(Nc1cccc(C2CCCN(c3ncnc4[nH]ccc34)C2)c1)Nc1ccncc1Cl` (stereo not drawn) [compound 222], the pIC50 under setting [1] is less than 5.00.

`O=C(NCC1CCOCC1)Nc1cccc(C2CCCN(c3ncnc4[nH]ccc34)C2)c1` (stereo not drawn) [compound 223]: under setting [1], the pIC50 was less than 5.00.

For the molecule `O=C(Nc1cccc(C2CCCN(c3ncnc4[nH]ccc34)C2)c1)Nc1cnccc1N1CCCC1` (stereo not drawn) [compound 224], under setting [1], the pIC50 is less than 5.00.

In the case of `CN1CCCC(CNC(=O)Nc2cccc(C3CCCN(c4ncnc5[nH]ccc45)C3)c2)C1` (stereo not drawn) [compound 225], under setting [1], the pIC50 was less than 5.00.

For `O=C(Nc1cccc(C2CCCN(c3ncnc4[nH]ccc34)C2)c1)Nc1cccc2[nH]ncc12` (stereo not drawn) [compound 226], the negative logarithm of the IC50 (pIC50) under setting [1] was less than 5.00.

`Cc1cc(NC(=O)Nc2cccc(C3CCCN(c4ncnc5[nH]ccc45)C3)c2)n(-c2ccccc2)n1` (stereo not drawn) [compound 227]: the pIC50 under setting [1] was less than 5.00.

In the case of `CN1CCCCC1CNC(=O)Nc1cccc(C2CCCN(c3ncnc4[nH]ccc34)C2)c1` (stereo not drawn) [compound 228], the pIC50 under setting [1] was less than 5.00.

For `O=C(NCC1CCCNC1)Nc1cccc(C2CCCN(c3ncnc4[nH]ccc34)C2)c1` (stereo not drawn) [compound 229], the pIC50 under setting [1] is less than 5.00.

As for `Cc1cc(NC(=O)Nc2cccc(C3CCCN(c4ncnc5[nH]ccc45)C3)c2)n(CCN(C)C)n1` (stereo not drawn) [compound 230], the pIC50 under setting [1] is less than 5.00.

For `O=C(NCC1CCNCC1)Nc1cccc(C2CCCN(c3ncnc4[nH]ccc34)C2)c1` (stereo not drawn) [compound 231], under setting [1], the negative-log IC50 (pIC50) was less than 5.00.

With `O=C(Nc1cccc(C2CCCN(c3ncnc4[nH]ccc34)C2)c1)NC1CCCNC1` (stereo not drawn) [compound 232], the pIC50 under setting [1] is less than 5.00.

As for `O=C(NCC1CCNC1)Nc1cccc(C2CCCN(c3ncnc4[nH]ccc34)C2)c1` (stereo not drawn) [compound 233], the negative logarithm of the IC50 (pIC50) under setting [1] is less than 5.00.

On to `O=C(Nc1ccccc1)NC1CN(C2CCCN(c3ncnc4[nH]ccc34)C2)C1` (stereo not drawn) [compound 234], for which the pIC50 under setting [1] was less than 5.00.
